In ChEMBL document CHEMBL3232913, “Structural basis for the identification of the N-terminal domain of coronavirus nucleocapsid protein as an antiviral target” (2014):
Calls of active or inactive are those of the source. No cut-off for these calls is given here.

Columns and labels:
Human coronavirus OC43 [1] = assay: Inhibition of Human coronavirus OC43 replication infected in human 293T cells transfected with wild-type HCoV-OC43 N protein assessed as M mRNA level at 10 uM by RT-PCR analysis (reference value: 2.41 no unit); type: functional
[2] = molecular target: T1, Nucleoprotein (Human coronavirus OC43) (UniProt P33469); assay: Inhibition of human coronavirus OC43 nucleocapsid protein expressed in Escherichia coli BL21(DE3) assessed as reduction of RNA-binding capacity by surface plasmon resonance analysis relative to control; settings: concentration not given here
T1 sequence (whole entry): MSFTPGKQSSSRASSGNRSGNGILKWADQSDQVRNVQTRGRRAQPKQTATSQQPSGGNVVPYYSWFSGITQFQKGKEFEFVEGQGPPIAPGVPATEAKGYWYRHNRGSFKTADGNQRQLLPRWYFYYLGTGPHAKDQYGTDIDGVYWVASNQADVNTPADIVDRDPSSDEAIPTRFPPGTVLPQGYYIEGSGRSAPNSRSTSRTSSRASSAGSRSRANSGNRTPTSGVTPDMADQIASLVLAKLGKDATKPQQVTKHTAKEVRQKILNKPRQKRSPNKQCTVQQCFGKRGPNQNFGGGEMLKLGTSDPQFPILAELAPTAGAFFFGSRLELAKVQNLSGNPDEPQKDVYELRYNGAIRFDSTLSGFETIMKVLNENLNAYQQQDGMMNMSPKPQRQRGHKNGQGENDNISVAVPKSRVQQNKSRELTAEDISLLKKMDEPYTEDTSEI

Human coronavirus OC43 [3] = assay: Inhibition of Human coronavirus OC43 replication infected in human 293T cells assessed as M mRNA level at 10 uM by RT-PCR analysis (reference value: 0.32 no unit); type: functional
[4] = molecular target: T1, Nucleoprotein (Human coronavirus OC43); settings: 10 uM
Description: Inhibition of human coronavirus OC43 nucleocapsid protein expressed in Escherichia coli BL21(DE3) assessed as reduction of RNA-binding capacity by measuring resonance unit at 10 uM by surface plasmon resonance analysis relative to control

SMILES | fold change (FC) (Human coronavirus OC43 [1]) | inhibition [2] | fold change (FC) (Human coronavirus OC43 [3]) | inhibition [4]
O=C1C(Cl)=C(NCCN2CCOCC2)C(=O)c2ncccc21 | 2.46 | > 10% | 0.22 | 
CN(C)CC(=O)Nc1ccc2[nH]c(=O)c3ccccc3c2c1.Cl [PJ34] | 0.65 | > 10% | 0.11 | Active
